The results in this text go back to US11679108B2, “Aromatic heterocyclic compound, and pharmaceutical composition and use thereof” (GUANGZHOU HENOVCOM BIOSCIENCE CO., LTD., priority 2018, dated 2023).

The term IC50 denotes the point on the concentration scale where inhibition reaches its midpoint.

The target of one assay is ATX (Homo sapiens, UniProt Q13822). The experiment in a line: Analysis in vitro: LPC was used as substrate for screening enzyme activity (Amplex Red fluorescence). The note with it: inhibitory activity against ATX, with LPC as substrate. The format is biochemical. The method, boiled down: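 ATX lysoPLD activity was measured by coupled detection: LPC hydrolysis releases choline, which choline oxidase/HRP convert to an Amplex Red fluorescent signal (ex 530/em 590 nm). The enzyme mix (2 ng/μl ATX, 2 U/ml HRP, 0.2 U/ml choline oxidase) was combined with the substrate mix ([…], 400 μM Amplex Red) and 10-point threefold compound dilutions for 30 min. IC50 was derived from the inhibition ratio.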

The target of another assay is T1, ATX in human plasma (Homo sapiens, UniProt Q13822).
T1 construct: blank plasma was derived from at least 6 individual people; from tissue; host or cells: human plasma (pooled from at least 6 individuals)
Nature of the assay: Analysis in vitro: detection of LPA in human plasma for screening activity (LPA 18:2 by LC/MS/MS). The format is biochemical. The following applies: incubated 2 hours at 37° C., LPA 18:2 detected by LC/MS/MS. The method, boiled down:
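Compounds at 0 to 10 μM were incubated for 2 h at 37° C. under 5% CO2 in pooled human plasma (≥6 donors), with endogenous LPC acting as substrate. LPA 18:2 was quantified by LC/MS/MS with an LPA 17:0 internal standard after methanol precipitation. IC50 values came from residual activity relative to compound-free plasma across 8 points of a 3-fold dilution series.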

As to `CCc1nc2sc(N3CCC[C@H](N(C)CC(=O)N4CC(O)C4)C3)nn2c1N(C)c1nc(-c2ccc(F)cc2)c(C#N)s1` [Example 24, (S)-2-{[6-ethyl-2-(3-((2-(3-hydroxyazetidin-1-yl)-2-oxoethyl)(methyl)amino)piperidin-1-yl)imidazo[2,1-b][1,3,4]thiadiazol-5-yl](methyl)amino}-4-(4-fluorophenyl)thiazole-5-carbonitrile], the IC50 at ATX and against ATX in human plasma was 0.01 to 100 nM each time.

Regarding `CCc1nc2sc(N3CC[C@@H](N(C)C(=O)N4CC(O)C4)C3)nn2c1N(C)c1nc(-c2ccc(F)cc2)c(C#N)s1` [Example 36, (R)—N-{1-[5-((5-cyano-4-(4-fluorophenyl)thiazol-2-yl)(methyl)amino)-6-ethylimidazo[2,1-b][1,3,4]thiadiazol-2-yl]pyrrolidin-3-yl}-3-hydroxy-N-methylazetidine-1-carboxamide], the IC50 on ATX was 0.01 to 100 nM; at ATX in human plasma, 100 to 500 nM.

With `CCc1nc2sc(N3CC[C@H](N(C)C(=O)N4CC(O)C4)C3)nn2c1N(C)c1nc(-c2ccc(F)cc2)c(C#N)s1` [Example 37, (S)—N-{1-[5-((5-cyano-4-(4-fluorophenyl)thiazol-2-yl)(methyl)amino)-6-ethylimidazo[2,1-b][1,3,4]thiadiazol-2-yl]pyrrolidin-3-yl}-3-hydroxy-N-methylazetidine-1-carboxamide], the results for the IC50 against ATX and against ATX in human plasma were 0.01 to 100 nM and 100 to 500 nM, respectively.

On to `CCc1nc2sc(N3CC[C@H](N(C)CC(=O)N4CC(F)C4)C3)nn2c1N(C)c1nc(-c2ccc(F)cc2)c(C#N)s1` [Example 38, (S)-2-{[6-ethyl-2-(3-((2-(3-fluoroazetidin-1-yl)-2-oxoethyl)(methyl)amino)pyrrolidin-1-yl)imidazo[2,1-b][1,3,4]thiadiazol-5-yl](methyl)amino}-4-(4-fluorophenyl)thiazole-5-carbonitrile], for which the IC50 on ATX lay in the range of 0.01 to 100 nM; on ATX in human plasma, 100 to 500 nM.

`CCc1nc2sc(N3CC[C@H](N(C)CC(=O)N4CCOCC4)C3)nn2c1N(C)c1nc(-c2ccc(F)cc2)c(C#N)s1` [Example 41, (S)-2-{[6-ethyl-2-(3-(methyl(2-morpholino-2-oxoethyl)amino)pyrrolidin-1-yl)imidazo[2,1-b][1,3,4]thiadiazol-5-yl](methyl)amino}-4-(4-fluorophenyl)thiazole-5-carbonitrile]: the results for the IC50 against ATX and against ATX in human plasma were 0.01 to 100 nM and 100 to 500 nM, respectively.

As for `CCc1nc2sc(N3CC[C@H](N(C)CC(=O)N4CC(C(=O)O)C4)C3)nn2c1N(C)c1nc(-c2ccc(F)cc2)c(C#N)s1` [Example 45, (5)-1-{2-[(1-(5-((5-cyano-4-(4-fluorophenyl)thiazol-2-yl)(methyl)amino)-6-ethylimidazo[2,1-b][1,3,4]thiadiazol-2-yl}pyrrolidin-3-yl)(methyl)amino]acetyl}azetidine-3-carboxylic acid], the IC50 against ATX was in the range of 0.01 to 100 nM; on ATX in human plasma, 100 to 500 nM.

Consider `CCc1nc2sc(N3CC[C@H](N(C)CC(=O)N4CC(C#N)C4)C3)nn2c1N(C)c1nc(-c2ccc(F)cc2)c(C#N)s1` [Example 47, (S)-2-{[2-(3-((2-(3-cyanoazetidin-1-yl)-2-oxoethyl)(methyl)amino)pyrrolidin-1-yl)-6-ethylimidazo[2,1-b][1,3,4]thiadiazol-5-yl](methyl)amino}-4-(4-fluorophenyl)-thiazole-5-carbonitrile], for which the IC50 against ATX and against ATX in human plasma was 0.01 to 100 nM in each case.
